Literature values as cited in patent US8840883B2, “Metallo-protein and tocotrienol (MP-T3) compositions with non-protein-type metal chelator and uses thereof” (Naidu LP, priority 2007, dated 2014).

Details: as low as 2% oxygen

Row | Structure (SMILES) | degradation [%]
1 | CC(C)=CCC/C(C)=C/CC/C(C)=C/CC[C@]1(C)CCc2cc(O)c(C)c(C)c2O1 [gamma-T3] | 29
2 | Cc1c(O)cc2c(c1C)O[C@](C)(CCC[C@H](C)CCC[C@H](C)CCCC(C)C)CC2 [gamma-tocopherol] | 20
